The target in one assay is T1, human TLR7 (Homo sapiens, UniProt Q9NYK1).
T1 construct: host or cells: HEK-Blue cells
T1 sequence (Q9NYK1 27-1049): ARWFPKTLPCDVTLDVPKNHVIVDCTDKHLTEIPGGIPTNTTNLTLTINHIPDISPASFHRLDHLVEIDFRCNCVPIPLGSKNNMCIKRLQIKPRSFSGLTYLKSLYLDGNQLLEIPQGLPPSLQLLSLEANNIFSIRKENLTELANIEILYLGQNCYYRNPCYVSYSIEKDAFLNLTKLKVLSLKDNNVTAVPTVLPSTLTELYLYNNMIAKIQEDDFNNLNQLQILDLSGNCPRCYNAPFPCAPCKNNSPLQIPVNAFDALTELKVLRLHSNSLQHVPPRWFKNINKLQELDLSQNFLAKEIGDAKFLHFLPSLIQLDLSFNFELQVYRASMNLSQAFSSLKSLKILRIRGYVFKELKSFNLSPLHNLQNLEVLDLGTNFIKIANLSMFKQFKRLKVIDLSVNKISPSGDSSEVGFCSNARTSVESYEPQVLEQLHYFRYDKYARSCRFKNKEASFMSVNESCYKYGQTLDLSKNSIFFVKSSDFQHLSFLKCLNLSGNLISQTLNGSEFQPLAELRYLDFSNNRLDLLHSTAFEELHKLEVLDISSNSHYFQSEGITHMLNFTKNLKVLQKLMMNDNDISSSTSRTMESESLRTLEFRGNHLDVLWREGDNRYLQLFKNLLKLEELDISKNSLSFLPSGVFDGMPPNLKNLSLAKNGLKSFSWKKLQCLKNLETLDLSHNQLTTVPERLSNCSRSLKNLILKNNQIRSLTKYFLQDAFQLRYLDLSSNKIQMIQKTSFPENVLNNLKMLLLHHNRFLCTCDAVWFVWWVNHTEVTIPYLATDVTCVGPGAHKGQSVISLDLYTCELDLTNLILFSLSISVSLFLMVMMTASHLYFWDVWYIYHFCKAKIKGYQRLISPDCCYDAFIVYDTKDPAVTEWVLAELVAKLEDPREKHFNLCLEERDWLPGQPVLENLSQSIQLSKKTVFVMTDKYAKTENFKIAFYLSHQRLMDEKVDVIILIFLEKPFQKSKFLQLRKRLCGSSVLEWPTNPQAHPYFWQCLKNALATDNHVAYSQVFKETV
The experiment in a line: TLR7 inhibition reporter assay (HEK-Blue cells, SEAP reporter, gardiquimod stimulation). It counts as cell-based. To be noted: HEK-Blue cells overexpressing human TLR7, SEAP reporter, gardiquimod 7.5 μM; read-out: TLR7 IC50. A digest of the protocol:
(§1)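 Dose–response from 0.05 nM to 50 μM was run in HEK-Blue human TLR7, TLR8 and TLR9 reporter cells. After 30 min at room temperature with compound, ligand was added (TLR7 gardiquimod 7.5 μM; TLR8 R848 15.9 μM; TLR9 ODN2006 5 nM) and SEAP measured next day, at 22 h.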
A general note: A reporter such as luciferase makes a cellular process visible.

For the next assay, the target named is T2, human TLR9 (Homo sapiens, UniProt Q9NR96).
T2 construct: host or cells: HEK-Blue cells
T2 sequence (Q9NR96 26-1032): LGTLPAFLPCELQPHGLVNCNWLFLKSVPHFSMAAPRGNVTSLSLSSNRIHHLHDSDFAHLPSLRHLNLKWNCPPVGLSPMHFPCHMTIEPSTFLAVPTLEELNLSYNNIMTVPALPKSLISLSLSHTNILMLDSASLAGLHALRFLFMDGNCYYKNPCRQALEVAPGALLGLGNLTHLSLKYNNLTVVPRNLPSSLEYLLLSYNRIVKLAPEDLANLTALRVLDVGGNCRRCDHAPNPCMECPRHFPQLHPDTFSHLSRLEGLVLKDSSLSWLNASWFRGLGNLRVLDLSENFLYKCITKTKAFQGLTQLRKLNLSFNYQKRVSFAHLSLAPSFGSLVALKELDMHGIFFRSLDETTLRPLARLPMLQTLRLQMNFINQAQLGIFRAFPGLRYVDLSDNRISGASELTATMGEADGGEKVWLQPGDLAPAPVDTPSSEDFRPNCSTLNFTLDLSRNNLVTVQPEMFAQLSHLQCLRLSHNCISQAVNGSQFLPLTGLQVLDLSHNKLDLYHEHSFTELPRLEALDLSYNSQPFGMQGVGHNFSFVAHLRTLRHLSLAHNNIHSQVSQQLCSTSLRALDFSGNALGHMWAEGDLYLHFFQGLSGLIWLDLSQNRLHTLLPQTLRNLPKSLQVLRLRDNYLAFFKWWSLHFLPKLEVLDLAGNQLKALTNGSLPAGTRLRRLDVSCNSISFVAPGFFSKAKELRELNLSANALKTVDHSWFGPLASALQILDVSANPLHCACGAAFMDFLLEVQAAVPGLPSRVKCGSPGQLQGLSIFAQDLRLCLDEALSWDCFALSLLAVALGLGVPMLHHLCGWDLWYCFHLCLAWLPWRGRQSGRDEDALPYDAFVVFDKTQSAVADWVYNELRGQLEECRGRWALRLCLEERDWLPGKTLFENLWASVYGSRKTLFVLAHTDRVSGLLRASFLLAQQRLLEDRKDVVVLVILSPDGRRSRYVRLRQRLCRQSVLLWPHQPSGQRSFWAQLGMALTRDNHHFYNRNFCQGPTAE
The experiment in a line: TLR9 inhibition reporter assay (HEK-Blue cells, SEAP reporter, ODN2006 stimulation). It counts as cell-based. To be noted: HEK-Blue cells overexpressing human TLR9, SEAP reporter, ODN2006 5 nM. The gist of the method:
as §1

The values that follow come from patent US20230139171A1 (SITA Information Networking Computing UK Limited, priority 2019, published 2023).

With `COc1cc(-c2[nH]c3sc(C4CCC(NC5COC5)CC4)nc3c2C(C)C)cn2ncnc12` (single isomer, unassigned) [Example 65, N-(4-(6-isopropyl-5-(8-methoxy-[1,2,4]triazolo[1,5-a]pyridin-6-yl)-4H-pyrrolo[3,2-d]thiazol-2-yl)cyclohexyl)oxetan-3-amine], the figures for the IC50 at human TLR7 and at human TLR9 were 0.00055 µM and 10.1 µM, respectively.

What is called IC50 is the concentration that gives 50% inhibition.
